How the values were obtained:
DIGSA [1] = experiment: Pre-emergence herbicidal action against DIGSA; assay type: in vivo, Digitaria sanguinalis
In short: (§1)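 Herbicidal effect was assessed 3 weeks after treatment by visual comparison with untreated controls, 100% denoting dead plants. Aqueous WP or EC preparations had been applied at 600 to 800 l/ha with 0.2% wetting agent to the soil covering freshly sown seeds.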

VERPE [2] = experiment: Post-emergence herbicidal action against VERPE; assay type: in vivo, Veronica persica; conditions: 20 g/ha; for pest or weed control at 20 g/ha: Veronica persica, 504 h
In short: (§2)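 Post-emergence greenhouse test; one-leaf stage, 2–3 wk post-sowing, sandy loam. Foliar spray of WP/EC in water, 600–800 l/ha, +0.2% wetting agent. Visual % action at ~3 wk vs untreated (100% = plants dead).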

AMARE [3] = experiment: Post-emergence herbicidal action against AMARE; assay type: in vivo, Amaranthus retroflexus; conditions: 20 g/ha, visual assessment about 3 weeks after treatment, 100% = plants have died, 0% = like control plants; for pest or weed control at 20 g/ha: Amaranthus retroflexus, 504 h
In short: as §2

VIOTR [4] = experiment: Pre-emergence herbicidal action against VIOTR; assay type: in vivo, Viola tricolor
In short: as §1

SETVI [5] = experiment: Post-emergence herbicidal action against SETVI; assay type: in vivo, Setaria viridis
In short: as §2

ABUTH [6] = experiment: Post-emergence herbicidal action against ABUTH; assay type: in vivo, Abutilon theophrasti; conditions: visual assessment about 3 weeks after treatment vs untreated controls; for pest or weed control at 5 g/ha / pest or weed control at 20 g/ha: Abutilon theophrasti, 504 h
In short: as §2

PHBPU = experiment: Post-emergence herbicidal action against PHBPU; assay type: in vivo, Pharbitis purpurea; conditions: for pest or weed control at 20 g/ha: Ipomoea purpurea, 504 h
In short: as §2

ECHCG [7] = experiment: Post-emergence herbicidal action against ECHCG; assay type: in vivo, Echinochloa crus-galli
In short: as §2

DIGSA [8] = experiment: Post-emergence herbicidal action against DIGSA; assay type: in vivo, Digitaria sanguinalis
In short: as §2

LOLRI = experiment: Pre-emergence herbicidal action against LOLRI; assay type: in vivo, Lolium rigidum; conditions: 80 g/ha; for pest or weed control at 80 g/ha: Lolium rigidum, 504 h
Source text: Seeds of monocotyledonous and dicotyledonous weed plants and crop plants are laid out in sandy loam soil in wood-fiber pots and covered with soil. The compounds of the invention, formulated in the form of wettable powders (WP) or as emulsion concentrates (EC), are then applied to the surface of the covering soil in the form of an aqueous suspension or emulsion at a water application rate equivalent to 600 to 800 l/ha, with addition of 0.2% wetting agent. After the treatment, the pots are placed in a greenhouse and kept under good growth conditions for the trial plants. The damage to the test plants is scored visually after a test period of 3 weeks by comparison with untreated controls (herbicidal activity in percent (%): 100% activity=the plants have died, 0% activity=like control plants). […] The tables below illustrate, in an illustrative manner, the post-emergence herbicidal action of the compounds of the invention, the herbicidal activity being stated in percent.

ALOMY [9] = experiment: Pre-emergence herbicidal action against ALOMY; assay type: in vivo, Alopecurus myosuroides
In short: as §1

AMARE [10] = experiment: Pre-emergence herbicidal action against AMARE; assay type: in vivo, Amaranthus retroflexus
In short: as §1

SETVI [11] = experiment: Pre-emergence herbicidal action against SETVI; assay type: in vivo, Setaria viridis; conditions: dosage 80 g/ha; for pest or weed control at 80 g/ha: Setaria viridis, 504 h
In short: as §1

ABUTH [12] = experiment: Pre-emergence herbicidal action against ABUTH; assay type: in vivo, Abutilon theophrasti
In short: as §1

ALOMY [13] = experiment: Post-emergence herbicidal action against ALOMY; assay type: in vivo, Alopecurus myosuroides; conditions: visual assessment about 3 weeks after treatment vs untreated controls
In short: as §2

MATIN [14] = experiment: Pre-emergence herbicidal action against MATIN; assay type: in vivo, Matricaria inodora
In short: as §1

VERPE [15] = experiment: Pre-emergence herbicidal action against VERPE; assay type: in vivo, Veronica persica; conditions: dosage 80 g/ha; for pest or weed control at 80 g/ha: Veronica persica, 504 h
In short: as §1

ECHCG [16] = experiment: Pre-emergence herbicidal action against ECHCG; assay type: in vivo, Echinochloa crus-galli; conditions: 80 g/ha; for pest or weed control at 80 g/ha: Echinochloa crus-galli, 504 h
In short: as §1

VIOTR [17] = experiment: Post-emergence herbicidal action against VIOTR; assay type: in vivo, Viola tricolor; conditions: Viola tricolor, 504 h
In short: as §2

AVEFA = experiment: Pre-emergence herbicidal action against AVEFA; assay type: in vivo, Avena fatua; conditions: Avena fatua, 504 h, pre-emergence
In short: as §1

MATIN [18] = experiment: Post-emergence herbicidal action against MATIN; assay type: in vivo, Matricaria inodora; conditions: Tripleurospermum inodorum, 504 h
In short: as §2

[19] = 20 g/ha, scored visually after 3 weeks, 100% = plants have died, 0% = like control plants
[20] = 80 g/ha, scored visually after 3 weeks vs untreated controls (100% = plants have died, 0% = like control plants)
[21] = Viola tricolor, 504 h, dosage 80 g/ha
[22] = Setaria viridis, 504 h, dosage 20 g/ha
[23] = Echinochloa crus-galli, 504 h, dosage 20 g/ha
[24] = Alopecurus myosuroides, 504 h, 80 g/ha, pre-emergence, scored visually after 3 weeks vs untreated controls (100% = plants have died, 0% = like control plants)
[25] = Amaranthus retroflexus, 504 h, 80 g/ha, scored visually after 3 weeks vs untreated controls, 100% = plants have died, 0% = like control plants
[26] = Abutilon theophrasti, 504 h, 80 g/ha, scored visually after 3 weeks vs untreated controls (100% = plants have died, 0% = like control plants)
[27] = Alopecurus myosuroides, 504 h, dosage 20 g/ha
[28] = Tripleurospermum inodorum, 504 h, dosage 80 g/ha

`COCCNC(=O)c1c(C(F)(F)F)ccc(C(=O)Nc2nnnn2C)c1C` [Example 1-34] was tested, and the “Pre-emergence action against DIGSA in %” value (DIGSA [1]; dosage 20 g/ha) was 100%, the “Pre-emergence action against DIGSA in %” value (DIGSA [1]; dosage 80 g/ha) was 100% and the “Post-emergence action against VERPE in %” value (VERPE [2]) was 90%. The “Post-emergence action at 20 g/ha against AMARE in %” value (AMARE [3]) was 100%, the “Pre-emergence action against VIOTR in %” value (VIOTR [4]; dosage 20 g/ha) was 100% and the “Pre-emergence action against VIOTR in %” value (VIOTR [4]; dosage 80 g/ha) was 100%. For the same molecule, the “Post-emergence action against SETVI in %” value (SETVI [5]; dosage 5 g/ha) was 80%, the “Post-emergence action against SETVI in %” value (SETVI [5]; dosage 20 g/ha) was 90% and the “Post-emergence action against ABUTH in %” value (ABUTH [6]; dosage 5 g/ha) was 90%. For the same molecule, the “Post-emergence action against ABUTH in %” value (ABUTH [6]; dosage 20 g/ha) was 100%, the “Post-emergence action against PHBPU in %” value (PHBPU; dosage 5 g/ha) was 90% and the “Post-emergence action against PHBPU in %” value (PHBPU; dosage 20 g/ha) was 90%. For the same molecule, the “Post-emergence action against ECHCG in %” value (ECHCG [7]; dosage 5 g/ha) was 90%, the “Post-emergence action against ECHCG in %” value (ECHCG [7]; dosage 20 g/ha) was 90% and the “Post-emergence action against DIGSA in %” value (DIGSA [8]; 5 g/ha) was 80%. The “Post-emergence action against DIGSA” value (DIGSA [8]; 20 g/ha) was 90%, the “Pre-emergence action against LOLRI in %” value (LOLRI) was 80% and the “Pre-emergence action against ALOMY” value (ALOMY [9]; [19]) was 80%. For the same molecule, the “Pre-emergence action against ALOMY (herbicidal activity)” value (ALOMY [9]; 80 g/ha, pre-emergence, scored visually after 3 weeks vs untreated controls (100% = plants have died, 0% = like control plants)) was 100%, the “Pre-emergence action against AMARE in %” value (AMARE [10]; 20 g/ha, scored visually after 3 weeks vs untreated controls, 100% = plants have died, 0% = like control plants) was 100% and the “Pre-emergence action against AMARE in %” value (AMARE [10]; [20]) was 100%. For the same molecule, the “Pre-emergence action against SETVI in %” value (SETVI [11]) was 100%, the “Pre-emergence action against ABUTH (herbicidal activity)” value (ABUTH [12]; [20]) was 100% and the “Pre-emergence action against ABUTH (herbicidal activity in percent)” value (ABUTH [12]; dosage 20 g/ha, scored visually after 3 weeks vs untreated controls, 100% = plants have died, 0% = like control plants) was 80%. For the same molecule, the “Post-emergence action against ALOMY in %” value (ALOMY [13]; dosage 20 g/ha) was 90%, the “Pre-emergence action against MATIN in %” value (MATIN [14]; dosage 80 g/ha) was 90% and the “Pre-emergence action against VERPE in %” value (VERPE [15]) was 100%. The “Pre-emergence action against ECHCG in %” value (ECHCG [16]) was 90%.

`CSc1c(C(=O)Nc2nnnn2C)ccc(C(F)(F)F)c1C(=O)NC1CC1` [Example 1-83] was tested, and the pest or weed control at 20 g/ha (VERPE [2]) was 90%, the pest or weed control at 20 g/ha (AMARE [3]) was 100% and the pest or weed control at 20 g/ha (VIOTR [4]; Viola tricolor, 504 h, dosage 20 g/ha) was 90%. For the same molecule, the pest or weed control at 80 g/ha (VIOTR [4]; [21]) was 100%, the pest or weed control at 5 g/ha (SETVI [5]; Setaria viridis, 504 h, dosage 5 g/ha) was 80% and the pest or weed control at 20 g/ha (SETVI [5]; [22]) was 100%. For the same molecule, the pest or weed control at 5 g/ha (ABUTH [6]; dosage 5 g/ha) was 90%, the pest or weed control at 20 g/ha (ABUTH [6]; dosage 20 g/ha) was 90% and the pest or weed control at 5 g/ha (VIOTR [17]; 5 g/ha) was 90%. It also gave a pest or weed control at 20 g/ha (VIOTR [17]) of 90%, a pest or weed control at 20 g/ha (PHBPU; dosage 20 g/ha) of 90% and a pest or weed control at 80 g/ha (AVEFA) of 80%. For the same molecule, the pest or weed control at 20 g/ha (ECHCG [7]; [23]) was 90%, the pest or weed control at 80 g/ha (LOLRI) was 80% and the pest or weed control at 80 g/ha (ALOMY [9]; [24]) was 100%. It also gave a pest or weed control at 20 g/ha (ALOMY [9]; Alopecurus myosuroides, pre-emergence, 504 h, 20 g/ha, scored visually after 3 weeks, 100% = plants have died, 0% = like control plants) of 80%, a pest or weed control at 80 g/ha (AMARE [10]; [25]) of 100% and a pest or weed control at 80 g/ha (SETVI [11]) of 100%. The pest or weed control at 80 g/ha (ABUTH [12]; [26]) was 100%, the pest or weed control at 20 g/ha (ABUTH [12]; Abutilon theophrasti, 504 h, dosage 20 g/ha, scored visually after 3 weeks vs untreated controls, 100% = plants have died, 0% = like control plants, read-out: Pre-emergence action against ABUTH (herbicidal activity in percent)) was 100% and the pest or weed control at 20 g/ha (ALOMY [13]; [27]) was 100%. It also gave a pest or weed control at 5 g/ha (MATIN [18]; dosage 5 g/ha) of 80%, a pest or weed control at 20 g/ha (MATIN [18]; dosage 20 g/ha) of 90% and a pest or weed control at 20 g/ha (MATIN [14]; Tripleurospermum inodorum, 504 h, dosage 20 g/ha) of 90%. The pest or weed control at 80 g/ha (MATIN [14]; [28]) was 100%, the pest or weed control at 80 g/ha (VERPE [15]) was 80% and the pest or weed control at 80 g/ha (ECHCG [16]) was 90%.

For `CCNC(=O)c1c(Br)ccc(C(=O)Nc2nnnn2C)c1Br` [Example 1-343], the pest or weed control at 20 g/ha (VERPE [2]) was 80%, the pest or weed control at 20 g/ha (AMARE [3]) was 100% and the pest or weed control at 80 g/ha (VIOTR [4]; [21]) was 100%. It also gave a pest or weed control at 20 g/ha (SETVI [5]; [22]) of 100%, a pest or weed control at 5 g/ha (ABUTH [6]; dosage 5 g/ha) of 90% and a pest or weed control at 20 g/ha (ABUTH [6]; dosage 20 g/ha) of 90%. It also gave a pest or weed control at 20 g/ha (VIOTR [17]) of 80%, a pest or weed control at 20 g/ha (PHBPU; dosage 20 g/ha) of 80% and a pest or weed control at 80 g/ha (AVEFA) of 80%. The pest or weed control at 20 g/ha (AVEFA; [19]) was 80%, the pest or weed control at 5 g/ha (ECHCG [7]; Echinochloa crus-galli, 504 h, dosage 5 g/ha) was 80% and the pest or weed control at 20 g/ha (ECHCG [7]; [23]) was 90%. For the same molecule, the pest or weed control at 80 g/ha (LOLRI) was 80%, the pest or weed control at 80 g/ha (ALOMY [9]; [24]) was 100% and the pest or weed control at 20 g/ha (AMARE [10]; Amaranthus retroflexus, 504 h, 20 g/ha, scored visually after 3 weeks vs untreated controls, 100% = plants have died, 0% = like control plants) was 100%. The pest or weed control at 80 g/ha (AMARE [10]; [25]) was 100%, the pest or weed control at 80 g/ha (SETVI [11]) was 100% and the pest or weed control at 80 g/ha (ABUTH [12]; [26]) was 100%. The pest or weed control at 5 g/ha (ALOMY [13]; Alopecurus myosuroides, 504 h, dosage 5 g/ha) was 90%, the pest or weed control at 20 g/ha (ALOMY [13]; [27]) was 100% and the pest or weed control at 80 g/ha (MATIN [14]; [28]) was 100%. For the same molecule, the pest or weed control at 80 g/ha (VERPE [15]) was 80% and the pest or weed control at 80 g/ha (ECHCG [16]) was 90%.

Source: patent US12655116B2, “Substituted isophthalic acid diamides” (Bayer Aktiengesellschaft, priority 2020, dated 2026)
